The source of these data is patent publication US9681664B2, “Macrocyclic picolinamides as fungicides” (Dow Agrosciences LLC, priority 2012, dated 2017).

In assay [1] the test system is Mycosphaerella graminicola; Anamorph: Septoria tritici. In words: Leaf blotch of wheat (SEPTTR) disease control on wheat seedlings. In kind it is in vivo. The settings on record: Zymoseptoria tritici; for pest or weed control at 121.5 g/ha: low volume application, 121.5 g/H. Here is the method:
Technical grades of materials were dissolved in acetone, which were then mixed with nine volumes of water containing 110 ppm Triton X-100. The fungicide solutions were applied onto wheat seedlings using an automated booth sprayer to run-off. All sprayed plants were allowed to air dry prior to further handling. All fungicides were evaluated using the aforementioned method for their activity vs. all target diseases. Wheat leaf blotch and brown rust activity were also evaluated using track spray applications, in which case the fungicides were formulated as EC formulations, containing 0.1% Trycol 5941 in the spray solutions. Wheat plants (variety Yuma) were grown from seed in a greenhouse in 50% mineral soil/50% soil-less Metro mix until the first leaf was fully emerged, with 7-10 seedlings per pot. These plants were inoculated with an aqueous spore suspension of Septoria tritici either prior to or after fungicide treatments. After inoculation the plants were kept in 100% relative humidity (one day in a dark dew chamber followed by two to three days in a lighted dew chamber at 20° C.) to permit spores to germinate and infect the leaf. The plants were then transferred to a greenhouse set at 20° C. for disease to develop. When disease symptoms were fully expressed on the 1st leaves of untreated plants, infection levels were assessed on a scale of 0 to 100 percent disease severity. Percent disease control was calculated using the ratio of disease severity on treated plants relative to untreated plants.

Assay [2] deals with Puccinia triticina; Synonym: Puccinia recondite f. sp. tritici. In words: Wheat brown rust (PUCCRT) disease control on wheat seedlings. It counts as in vivo. Particulars: Puccinia triticina; for pest or weed control at 121.5 g/ha: low volume application, 121.5 g/H. Here is the method: Technical grades of materials were dissolved in acetone, which were then mixed with nine volumes of water containing 110 ppm Triton X-100. The fungicide solutions were applied onto wheat seedlings using an automated booth sprayer to run-off. All sprayed plants were allowed to air dry prior to further handling. All fungicides were evaluated using the aforementioned method for their activity vs. all target diseases. Wheat leaf blotch and brown rust activity were also evaluated using track spray applications, in which case the fungicides were formulated as EC formulations, containing 0.1% Trycol 5941 in the spray solutions. Wheat plants (variety Yuma) were grown from seed in a greenhouse in 50% mineral soil/50% soil-less Metro mix until the first leaf was fully emerged, with 7-10 seedlings per pot. These plants were inoculated with an aqueous spore suspension of Puccinia triticina either prior to or after fungicide treatments. After inoculation the plants were kept in a dark dew room at 22° C. with 100% relative humidity overnight to permit spores to germinate and infect the leaf. The plants were then transferred to a greenhouse set at 24° C. for disease to develop. Fungicide formulation, application and disease assessment followed the procedures as described in the Example A.

Where [3] appears, read: 24 h, High volume application, 1 Day Protectant, read-out: SEPTTR 1DP disease control.
Setting [4] is: 72 h, High volume application, 3 Day Curative, read-out: SEPTTR 3DC disease control.
The mark [5] stands for this setting: 24 h, High volume application, 1 Day Protectant, read-out: PUCCRT 1DP disease control.
The mark [6] stands for this setting: 72 h, High volume application, 3 Day Curative, read-out: PUCCRT 3DC disease control.
Setting [7] is: 24 h, Wheat Leaf Blotch, 1 Day Protectant, high volume application, read-out: Disease Control SEPTTR 1 DP 100 ppm.
The mark [8] stands for this setting: 24 h, Wheat Leaf Blotch, 1 Day Protectant, read-out: Disease Control SEPTTR 1 DP 121.5 g/H.
Where [9] appears, read: 72 h, Wheat Leaf Blotch, 3 Day Curative, high volume application, read-out: Disease Control SEPTTR 3 DC 100 ppm.
Setting [10] is: 72 h, Wheat Leaf Blotch, 3 Day Curative, read-out: Disease Control SEPTTR 3 DC 121.5 g/H.
[11] abbreviates: 24 h, Wheat Brown Rust, 1 Day Protectant, high volume application, read-out: Disease Control PUCCRT 1 DP 100 ppm.
The mark [12] stands for this setting: 24 h, Wheat Brown Rust, 1 Day Protectant, read-out: Disease Control PUCCRT 1 DP 121.5 g/H.
Setting [13] is: 72 h, Wheat Brown Rust, 3 Day Curative, high volume application, read-out: Disease Control PUCCRT 3 DC 100 ppm.
The mark [14] stands for this setting: 72 h, Wheat Brown Rust, 3 Day Curative, read-out: Disease Control PUCCRT 3 DC 121.5 g/H.

Read-outs that look alike come from different tables or passages of the source. Bounds are passed on as bounds.

On to `COc1ccc(O[C@H]2[C@H](C)OC(=O)[C@@H](NC(=O)c3nccc(OC)c3O)CCC[C@@H]2OCC(C)C)cc1` [F57], for which the pest or weed control at 100 ppm in assay [1] (setting [3]), in assay [1] (setting [4]), in assay [2] (setting [5]) and in assay [2] (setting [6]) was 80 to 100% throughout.
With `COc1ccnc(C(=O)N[C@H]2CCC[C@H](Oc3ccc(C)cc3)[C@@H](Oc3ccc(C)cc3)[C@H](C)OC2=O)c1OCOC(C)=O` [F115], the pest or weed control at 100 ppm in assay [1] (setting [3]) is 80 to 100%; in assay [1] (setting [4]), 0 to 80%; in assay [2] (setting [5]), 80 to 100%; in assay [2] (setting [6]) it was 0 to 80%.
Consider `CCCO[C@H]1[C@H](C)OC(=O)[C@@H](NC(=O)c2nccc(OC)c2OC(C)=O)CCC[C@@H]1Oc1ccccc1` [F102], for which the pest or weed control at 100 ppm in assay [1] (setting [3]), in assay [1] (setting [4]), in assay [2] (setting [5]) and in assay [2] (setting [6]) was 80 to 100% each time.
As to `CCCO[C@H]1[C@H](C)OC(=O)[C@@H](NC(=O)c2nccc(OC)c2OCOC(C)=O)CCC[C@@H]1OCCC` [F116], the pest or weed control at 100 ppm in assay [1] (setting [3]), in assay [1] (setting [4]), in assay [2] (setting [5]) and in assay [2] (setting [6]) was 80 to 100% in each case.
As for `CCCO[C@H]1[C@H](C)OC(=O)[C@@H](NC(=O)c2nccc(OC)c2OC(C)=O)CCC[C@@H]1Oc1cccc(F)c1` [F284], the pest or weed control at 100 ppm in assay [1] (setting [7]), in assay [1] (setting [9]), in assay [2] (setting [11]) and in assay [2] (setting [13]) was 80 to 100% throughout. Also, the pest or weed control at 121.5 g/ha in assay [1] (setting [8]), in assay [1] (setting [10]), in assay [2] (setting [12]) and in assay [2] (setting [14]) was 80 to 100% in each case.
On to `COc1ccnc(C(=O)N[C@H]2CCC[C@H](OC(=O)C3CCCC3)[C@@H](OC(=O)C3CCCC3)[C@H](C)OC2=O)c1OC(C)=O` [F91], for which the pest or weed control at 100 ppm in assay [1] (setting [3]), in assay [1] (setting [4]), in assay [2] (setting [5]) and in assay [2] (setting [6]) was 80 to 100% throughout.
As for `CCCOC(=O)O[C@H]1CCC[C@H](NC(=O)c2nccc(OC)c2OC(C)=O)C(=O)O[C@@H](C)[C@@H]1Oc1cc(C)cc(C)c1` [F291], the pest or weed control at 100 ppm in assay [1] (setting [7]) is 80 to 100%; in assay [1] (setting [9]), 80 to 100%; in assay [2] (setting [11]), 80 to 100%; in assay [2] (setting [13]) it was 0 to 80%.
As to `CCCO[C@H]1[C@H](C)OC(=O)[C@@H](NC(=O)c2nccc(OC)c2OCOC(=O)C(C)C)CCC[C@@H]1OC1CCCC1` [F123], the pest or weed control at 100 ppm in assay [1] (setting [3]), in assay [1] (setting [4]), in assay [2] (setting [5]) and in assay [2] (setting [6]) was 80 to 100% in each case.
`COc1ccnc(C(=O)N[C@H]2CCC[C@H](Oc3ccccc3)[C@@H](OCCCC(F)(F)F)[C@H](C)OC2=O)c1OC(C)=O` [F109]: the pest or weed control at 100 ppm in assay [1] (setting [3]), in assay [1] (setting [4]), in assay [2] (setting [5]) and in assay [2] (setting [6]) was 80 to 100% each time.
Turning to `COc1ccnc(C(=O)N[C@H]2CCC[C@H](Oc3ccc(F)cc3)[C@@H](Oc3ccc(F)cc3)[C@H](C)OC2=O)c1OCOC(C)=O` [F48], the pest or weed control at 100 ppm in assay [1] (setting [3]), in assay [1] (setting [4]), in assay [2] (setting [5]) and in assay [2] (setting [6]) was 80 to 100% throughout.
Take `COc1ccnc(C(=O)N[C@H]2CCC[C@H](Oc3ccc(C)cc3)[C@@H](Oc3ccc(C)cc3)[C@H](C)OC2=O)c1O` [F113]: the pest or weed control at 100 ppm in assay [1] (setting [3]) was < 0%; in assay [1] (setting [4]) it was 0 to 80%; in assay [2] (setting [5]), 0 to 80%; in assay [2] (setting [6]), 0 to 80%.
Take `COc1ccnc(C(=O)N[C@H]2CCC[C@H](OC3CCCC3)[C@@H](OC(=O)C3CC3)[C@H](C)OC2=O)c1OCOC(=O)C(C)C` [F145]: the pest or weed control at 100 ppm in assay [1] (setting [3]), in assay [1] (setting [4]), in assay [2] (setting [5]) and in assay [2] (setting [6]) was 80 to 100% in each case.
Take `COc1ccnc(C(=O)N[C@H]2CCC[C@H](Oc3ccccc3)[C@@H](OCCCC(F)(F)F)[C@H](C)OC2=O)c1OCOC(=O)C(C)C` [F108]: the pest or weed control at 100 ppm in assay [1] (setting [3]), in assay [1] (setting [4]), in assay [2] (setting [5]) and in assay [2] (setting [6]) was 80 to 100% each time.
Regarding `COc1ccc(O[C@H]2[C@H](C)OC(=O)[C@@H](NC(=O)c3nccc(OC)c3OCOC(C)=O)CCC[C@@H]2Oc2ccc(OC)cc2)cc1` [F66], the pest or weed control at 100 ppm was in the range of 80 to 100% in assay [1] (setting [3]), 0 to 80% in assay [1] (setting [4]), 80 to 100% in assay [2] (setting [5]) and 80 to 100% in assay [2] (setting [6]).
Turning to `COc1ccnc(C(=O)N[C@H]2CCC[C@H](Oc3ccc(F)cc3)[C@@H](OC3CCCC3)[C@H](C)OC2=O)c1O` [F160], the pest or weed control at 100 ppm in assay [1] (setting [3]), in assay [1] (setting [4]), in assay [2] (setting [5]) and in assay [2] (setting [6]) was 80 to 100% in each case.
With `CCCCCO[C@H]1[C@H](C)OC(=O)[C@@H](NC(=O)c2nccc(OC)c2OC(C)=O)CCC[C@@H]1Oc1ccccc1` [F103], the pest or weed control at 100 ppm in assay [1] (setting [3]), in assay [1] (setting [4]), in assay [2] (setting [5]) and in assay [2] (setting [6]) was 80 to 100% each time.
On to `COc1ccnc(C(=O)N[C@H]2CCC[C@H](Oc3ccccc3)[C@@H](OC(=O)C3CC3)[C@H](C)OC2=O)c1OCOC(C)=O` [F240], for which the pest or weed control at 100 ppm in assay [1] (setting [7]), in assay [1] (setting [9]), in assay [2] (setting [11]) and in assay [2] (setting [13]) was 80 to 100% in each case. Further, the pest or weed control at 121.5 g/ha in assay [1] (setting [8]), in assay [1] (setting [10]), in assay [2] (setting [12]) and in assay [2] (setting [14]) was 80 to 100% throughout.
For `COc1ccnc(C(=O)N[C@H]2CCC[C@H](OC(=O)C3CCCC3)[C@@H](OC(=O)C3CCCC3)[C@H](C)OC2=O)c1OCOC(=O)C(C)C` [F99], the pest or weed control at 100 ppm in assay [1] (setting [3]), in assay [1] (setting [4]), in assay [2] (setting [5]) and in assay [2] (setting [6]) was 80 to 100% in each case.
In the case of `COc1ccnc(C(=O)N[C@H]2CCC[C@H](OC3CCCC3)[C@@H](OCCCC(F)(F)F)[C@H](C)OC2=O)c1OCOC(C)=O` [F125], the pest or weed control at 100 ppm in assay [1] (setting [3]), in assay [1] (setting [4]), in assay [2] (setting [5]) and in assay [2] (setting [6]) was 80 to 100% each time.
Regarding `COc1ccnc(C(=O)N[C@H]2CCC[C@H](Oc3ccccc3)[C@@H](OCC(C)C)[C@H](C)OC2=O)c1O` [F27], the pest or weed control at 100 ppm in assay [1] (setting [3]), in assay [1] (setting [4]), in assay [2] (setting [5]) and in assay [2] (setting [6]) was 80 to 100% each time.
As for `COc1ccnc(C(=O)N[C@H]2CCC[C@H](OCCCc3ccccc3)[C@@H](Oc3ccccc3)[C@H](C)OC2=O)c1O` [F128], the pest or weed control at 100 ppm in assay [1] (setting [3]) was 80 to 100%; in assay [1] (setting [4]), < 0%; in assay [2] (setting [5]), 80 to 100%; in assay [2] (setting [6]), 0 to 80%.
